Assays:
PIK3CA (human) = PIK3CA (human) (UniProt P42336); assay: Inhibition of PIK3CA Kinase Activity
PIK3CB (Human) = PIK3CB (Human) (UniProt P42338); assay: Inhibition of PIK3CB Kinase Activity
PIK3CD (Human) = PIK3CD (Human) (UniProt O00329); assay: Inhibition of PIK3CD Kinase Activity
PIK3CG (human) = PIK3CG (human) (UniProt P48736); assay: Inhibition of PIK3CG Kinase Activity

Measured: IC50

Sequence of PIK3CD (Human) (O00329 whole entry, looked up): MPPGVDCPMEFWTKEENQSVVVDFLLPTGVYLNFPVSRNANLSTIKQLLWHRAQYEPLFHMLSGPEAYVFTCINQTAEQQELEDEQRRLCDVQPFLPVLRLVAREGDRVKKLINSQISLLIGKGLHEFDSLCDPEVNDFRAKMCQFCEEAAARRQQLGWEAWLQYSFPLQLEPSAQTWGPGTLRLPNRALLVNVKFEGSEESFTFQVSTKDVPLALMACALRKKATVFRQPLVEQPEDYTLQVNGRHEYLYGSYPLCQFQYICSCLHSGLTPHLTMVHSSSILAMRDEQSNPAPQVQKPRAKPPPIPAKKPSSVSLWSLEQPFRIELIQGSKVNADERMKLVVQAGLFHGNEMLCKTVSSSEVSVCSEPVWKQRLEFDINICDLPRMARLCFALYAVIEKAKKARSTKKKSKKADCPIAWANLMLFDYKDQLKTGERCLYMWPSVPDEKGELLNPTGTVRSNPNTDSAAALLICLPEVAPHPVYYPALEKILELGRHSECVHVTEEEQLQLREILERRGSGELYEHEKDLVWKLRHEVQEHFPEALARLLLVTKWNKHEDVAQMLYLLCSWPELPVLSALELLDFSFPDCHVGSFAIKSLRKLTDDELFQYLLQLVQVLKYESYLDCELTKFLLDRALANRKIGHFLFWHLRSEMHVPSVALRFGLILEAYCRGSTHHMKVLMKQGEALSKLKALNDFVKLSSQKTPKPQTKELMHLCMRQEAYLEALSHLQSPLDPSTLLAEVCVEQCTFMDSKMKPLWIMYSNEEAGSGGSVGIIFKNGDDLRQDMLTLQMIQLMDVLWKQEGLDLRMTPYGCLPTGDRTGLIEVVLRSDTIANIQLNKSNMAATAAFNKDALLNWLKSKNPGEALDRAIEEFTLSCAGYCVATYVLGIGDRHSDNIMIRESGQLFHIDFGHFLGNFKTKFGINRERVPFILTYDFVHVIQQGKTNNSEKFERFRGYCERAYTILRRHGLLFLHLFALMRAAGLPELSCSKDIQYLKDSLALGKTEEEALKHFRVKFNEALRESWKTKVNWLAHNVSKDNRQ
Sequence of PIK3CA (human) (P42336 whole entry, looked up): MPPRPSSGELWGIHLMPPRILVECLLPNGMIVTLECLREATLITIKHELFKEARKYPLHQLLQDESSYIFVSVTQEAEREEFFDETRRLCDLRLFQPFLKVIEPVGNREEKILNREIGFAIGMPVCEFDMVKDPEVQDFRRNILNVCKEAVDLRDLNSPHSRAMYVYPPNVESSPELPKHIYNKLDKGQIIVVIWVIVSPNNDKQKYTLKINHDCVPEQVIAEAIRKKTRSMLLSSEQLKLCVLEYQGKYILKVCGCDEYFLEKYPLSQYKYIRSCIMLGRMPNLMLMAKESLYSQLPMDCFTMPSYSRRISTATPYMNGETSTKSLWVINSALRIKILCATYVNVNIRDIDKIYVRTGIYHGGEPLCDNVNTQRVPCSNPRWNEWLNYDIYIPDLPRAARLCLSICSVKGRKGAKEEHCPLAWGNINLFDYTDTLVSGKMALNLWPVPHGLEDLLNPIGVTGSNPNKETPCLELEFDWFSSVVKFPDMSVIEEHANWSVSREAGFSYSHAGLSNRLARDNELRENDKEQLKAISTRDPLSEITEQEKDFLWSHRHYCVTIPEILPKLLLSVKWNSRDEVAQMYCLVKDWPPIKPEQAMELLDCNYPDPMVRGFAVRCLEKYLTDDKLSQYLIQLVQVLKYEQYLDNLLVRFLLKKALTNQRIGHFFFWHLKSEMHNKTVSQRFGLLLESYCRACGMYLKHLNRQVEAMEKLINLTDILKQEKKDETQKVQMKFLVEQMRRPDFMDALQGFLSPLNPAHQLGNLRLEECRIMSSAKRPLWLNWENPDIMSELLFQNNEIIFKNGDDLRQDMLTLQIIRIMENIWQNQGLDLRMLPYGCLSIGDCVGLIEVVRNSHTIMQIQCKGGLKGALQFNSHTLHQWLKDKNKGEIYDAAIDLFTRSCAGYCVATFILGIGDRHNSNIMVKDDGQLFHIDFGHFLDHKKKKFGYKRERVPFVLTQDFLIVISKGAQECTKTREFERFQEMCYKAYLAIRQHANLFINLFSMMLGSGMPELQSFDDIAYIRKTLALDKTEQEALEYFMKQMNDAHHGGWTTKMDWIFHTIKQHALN
Sequence of PIK3CG (human) (P48736 whole entry, looked up): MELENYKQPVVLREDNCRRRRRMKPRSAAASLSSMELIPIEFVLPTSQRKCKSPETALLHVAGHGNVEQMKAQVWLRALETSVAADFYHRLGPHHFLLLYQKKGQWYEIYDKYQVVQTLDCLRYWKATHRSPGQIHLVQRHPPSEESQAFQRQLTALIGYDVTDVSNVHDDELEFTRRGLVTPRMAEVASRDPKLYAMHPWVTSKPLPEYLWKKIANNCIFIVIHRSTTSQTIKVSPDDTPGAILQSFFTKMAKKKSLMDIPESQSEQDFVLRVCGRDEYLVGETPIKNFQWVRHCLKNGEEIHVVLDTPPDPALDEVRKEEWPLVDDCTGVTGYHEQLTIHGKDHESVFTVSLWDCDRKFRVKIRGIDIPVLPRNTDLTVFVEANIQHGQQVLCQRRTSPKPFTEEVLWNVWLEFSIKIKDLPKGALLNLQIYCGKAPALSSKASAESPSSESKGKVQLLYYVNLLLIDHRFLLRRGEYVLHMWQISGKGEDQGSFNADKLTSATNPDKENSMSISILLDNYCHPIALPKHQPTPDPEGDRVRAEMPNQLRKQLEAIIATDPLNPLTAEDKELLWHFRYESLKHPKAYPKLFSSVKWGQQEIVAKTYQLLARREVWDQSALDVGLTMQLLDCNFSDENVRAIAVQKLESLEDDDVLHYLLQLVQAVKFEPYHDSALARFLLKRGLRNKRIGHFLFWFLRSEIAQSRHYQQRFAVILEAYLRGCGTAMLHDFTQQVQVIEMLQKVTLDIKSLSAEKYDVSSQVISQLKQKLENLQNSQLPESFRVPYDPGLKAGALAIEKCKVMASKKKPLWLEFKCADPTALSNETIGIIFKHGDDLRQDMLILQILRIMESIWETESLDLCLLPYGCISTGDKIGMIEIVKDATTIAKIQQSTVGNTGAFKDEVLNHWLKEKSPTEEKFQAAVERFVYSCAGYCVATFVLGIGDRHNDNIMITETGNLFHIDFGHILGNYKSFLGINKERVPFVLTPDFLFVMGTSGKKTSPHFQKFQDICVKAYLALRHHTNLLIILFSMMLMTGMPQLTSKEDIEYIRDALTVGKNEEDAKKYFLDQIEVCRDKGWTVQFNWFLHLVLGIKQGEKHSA
Sequence of PIK3CB (Human) (P42338 whole entry, looked up): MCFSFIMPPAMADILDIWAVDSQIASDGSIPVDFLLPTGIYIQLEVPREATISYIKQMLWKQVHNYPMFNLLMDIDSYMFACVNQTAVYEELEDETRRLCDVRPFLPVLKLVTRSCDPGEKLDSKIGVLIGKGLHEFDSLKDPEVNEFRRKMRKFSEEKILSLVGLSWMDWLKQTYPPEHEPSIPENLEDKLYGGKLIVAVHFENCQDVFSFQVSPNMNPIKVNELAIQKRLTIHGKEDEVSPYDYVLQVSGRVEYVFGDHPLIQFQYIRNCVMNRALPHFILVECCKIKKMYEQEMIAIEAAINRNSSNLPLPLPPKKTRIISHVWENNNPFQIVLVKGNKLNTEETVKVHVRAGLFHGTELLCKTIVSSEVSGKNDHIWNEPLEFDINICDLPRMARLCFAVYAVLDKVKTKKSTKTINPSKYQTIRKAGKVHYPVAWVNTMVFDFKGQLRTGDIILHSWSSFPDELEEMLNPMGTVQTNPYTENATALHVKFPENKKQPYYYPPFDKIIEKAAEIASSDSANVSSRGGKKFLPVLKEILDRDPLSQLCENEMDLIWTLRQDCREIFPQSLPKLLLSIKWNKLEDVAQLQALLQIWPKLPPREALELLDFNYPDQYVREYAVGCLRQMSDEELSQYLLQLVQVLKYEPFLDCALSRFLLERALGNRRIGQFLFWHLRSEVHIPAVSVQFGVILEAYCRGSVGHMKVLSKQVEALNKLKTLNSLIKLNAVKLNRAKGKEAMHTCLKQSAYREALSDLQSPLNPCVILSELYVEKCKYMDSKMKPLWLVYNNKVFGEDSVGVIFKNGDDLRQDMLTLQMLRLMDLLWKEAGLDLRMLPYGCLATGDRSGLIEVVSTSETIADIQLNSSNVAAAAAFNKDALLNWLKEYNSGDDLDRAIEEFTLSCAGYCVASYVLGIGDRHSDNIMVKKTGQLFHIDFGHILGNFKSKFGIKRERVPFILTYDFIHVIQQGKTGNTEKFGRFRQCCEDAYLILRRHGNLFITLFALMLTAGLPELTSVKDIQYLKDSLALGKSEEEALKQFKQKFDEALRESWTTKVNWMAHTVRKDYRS

CC(=O)Nc1nc2ccc(-c3cncc(S(=O)(=O)N(C)C)c3)cc2s1
< 1000 nM: all assays above

CC(=O)Nc1nc2ccc(-c3cccc(S(=O)(=O)NCCO)c3)cc2s1
< 1000 nM: all assays above
